Patent US10344026B2, “Compositions and methods of targeting mutant K-ras” (NANTBIO, INC., priority 2017, dated 2019)

Columns and labels:
Assay type in all cases: cell-based
[1] = tested on: phospho-ERK in HCC827 (Wild-type); assay: In-Cell Western phospho-ERK, HCC827; conditions: Homo sapiens, 1 h; HCC827, one hour treatment; read-out: In-Cell Western HCC827 (Wild-type) Erk (P)
Procedure, shortened: (§1)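 EC50 values come from immunofluorescence quantitation of phosphorylated ERK or Akt in fixed cells exposed to compound for one hour at 0.5% DMSO. Maximal inhibition is defined by 1 uM BEZ235 for Akt and 1 uM MEK Inhibitor II for ERK.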

[2] = tested on: phospho-Akt in Panc1 (G12D); assay: In-Cell Western phospho-Akt, Panc1; conditions: Homo sapiens, PANC-1, 1 h; Panc1, one hour treatment; read-out: In-Cell Western Panc1 (G12D) Akt (P)
Procedure, shortened: as §1

[3] = tested on: HCC827 (K-Ras wild type cell line); assay: Viability assay (CellTiterBlue, 72 hr) HCC827; conditions: Homo sapiens, GI50, CellTiterBlue, HCC827 K-Ras wild-type
Procedure, shortened: (§2)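 1000 cells/well, 18 hr pre-incubation at 37 °C; compound added from DMSO stock, 0.5% DMSO final; 72 hr; CellTiterBlue 3 hr, fluorescence Ex550/Em590; GI50 normalized to DMSO = 100%, 100 uM tamoxifen = 0% viability.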

[4] = tested on: phospho-ERK in Panc10.05 (G12D); assay: In-Cell Western phospho-ERK, Panc10.05; conditions: Homo sapiens, Panc1005, 1 h; Panc10.05, one hour treatment; read-out: In-Cell Western Panc10.05 (G12D) Erk (P)
Procedure, shortened: as §1

K-Ras G12V = target: T1, K-Ras G12V (Homo sapiens, UniProt P01116, G12V); assay: G-LISA Ras activation, 293H cells transfected with G12V mutant; conditions: compound 1 hour
T1 construct: expressed in transfected cells; host or cells: 293H cells
T1 sequence (P01116 whole entry G12V): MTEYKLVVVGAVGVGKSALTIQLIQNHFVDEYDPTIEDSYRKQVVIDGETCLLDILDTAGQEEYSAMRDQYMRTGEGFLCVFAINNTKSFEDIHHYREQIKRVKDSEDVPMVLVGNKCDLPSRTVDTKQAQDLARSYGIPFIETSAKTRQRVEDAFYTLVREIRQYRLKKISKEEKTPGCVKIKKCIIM
Protocol: 293H cells were seeded in 6-wells at 0.6×10^6 cells per well and transfected next day with 5 μg of Ras wild-type, or G12C, G12D or G12V mutant DNA plasmid vector using transfection reagent Lipofectamine 3000. Next day cells were treated with 3.125-25 μM of Ras compounds for 1 hour. Wild-type transfected cells were subsequently treated with 100 ng/ml EGF for 2 minutes. Cells were washed once in ice-cold PBS, lysed in complete lysis buffer on ice, and processed by G-LISA according to Cytoskeleton protocol.

[5] = tested on: phospho-ERK in Panc1 (G12D); assay: In-Cell Western phospho-ERK, Panc1; conditions: Homo sapiens, PANC-1, 1 h; Panc1, one hour treatment; read-out: In-Cell Western Panc1 (G12D) Erk (P)
Procedure, shortened: as §1

wild type K-Ras = target: T2, wild type K-Ras (Homo sapiens, UniProt P01116); assay: G-LISA Ras activation, 293H cells transfected with Ras wild-type, EGF stimulated; conditions: compound 1 hour, then 100 ng/ml EGF 2 minutes
T2 construct: expressed in transfected cells; host or cells: 293H cells
T2 sequence (P01116 whole entry): as the sequence (P01116 whole entry G12V) above, with V12G counted along it
Procedure, shortened: (§3)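 Active Ras was quantified by G-LISA in lysates of 293H cells transiently expressing wild-type or mutant Ras. Compounds (3.125-25 μM) were applied for 1 hour; only wild-type transfected cells were stimulated with 100 ng/ml EGF for 2 minutes.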

Panc10.05-G12D = assay: Viability assay (CellTiterBlue, 72 hr) Panc10.05; conditions: Homo sapiens, Panc1005, GI50, CellTiterBlue, Panc10.05 K-Ras G12D, read-out: 72 hr Cell Viability Panc10.05 (G12D)
Procedure, shortened: as §2

Panc1-G12D = assay: Viability assay (CellTiterBlue, 72 hr) Panc1; conditions: Homo sapiens, PANC-1, GI50, CellTiterBlue, Panc1 K-Ras G12D, read-out: 72 hr Cell Viability Panc1 (G12D)
Procedure, shortened: as §2

HCT116-G31D = assay: Viability assay (CellTiterBlue, 72 hr) HCT116; conditions: Homo sapiens, HCT-116, GI50, CellTiterBlue, HCT116 K-Ras G13D, read-out: 72 hr Cell Viability HCT116 (G13D)
Procedure, shortened: as §2

[6] = tested on: phospho-Akt in Panc10.05 (G12D); assay: In-Cell Western phospho-Akt, Panc10.05; conditions: Homo sapiens, Panc1005, 1 h; Panc10.05, one hour treatment; read-out: In-Cell Western Panc10.05 (G12D) Akt (P)
Procedure, shortened: as §1

[7] = tested on: Ishikawa (K-Ras wild type cell line); assay: Viability assay (CellTiterBlue, 72 hr) Ishikawa; conditions: Homo sapiens, GI50, CellTiterBlue, Ishikawa K-Ras wild-type
Procedure, shortened: as §2

[8] = tested on: phospho-Akt in HCC827 (Wild-type); assay: In-Cell Western phospho-Akt, HCC827; conditions: Homo sapiens, 1 h; HCC827, one hour treatment; read-out: In-Cell Western HCC827 (Wild-type) Akt (P)
Procedure, shortened: as §1

K-Ras G12D = target: T3, K-Ras G12D (Homo sapiens, UniProt P01116, G12D); assay: G-LISA Ras activation, 293H cells transfected with G12D mutant; conditions: compound 1 hour
T3 construct: expressed in transfected cells; host or cells: 293H cells
T3 sequence (P01116 whole entry G12D): as the sequence (P01116 whole entry G12V) above, with V12D counted along it
Procedure, shortened: as §3

[9] = tested on: U87-MG (K-Ras wild type cell line); assay: Viability assay (CellTiterBlue, 72 hr) U87-MG; conditions: Homo sapiens, U-87 MG, GI50, CellTiterBlue, U87-MG K-Ras wild-type
Procedure, shortened: as §2

[10] = tested on: A375 (K-Ras wild type cell line); assay: Viability assay (CellTiterBlue, 72 hr) A375; conditions: Homo sapiens, A-375, GI50, CellTiterBlue
Procedure, shortened: as §2

[11] = tested on: phospho-ERK in A375 (Wild-type); assay: In-Cell Western phospho-ERK, A375; conditions: Homo sapiens, A-375, 1 h; A375, one hour treatment; read-out: In-Cell Western A375 (Wild-type) Erk (P)
Procedure, shortened: as §1

[12] = tested on: phospho-Akt in A375 (Wild-type); assay: In-Cell Western phospho-Akt, A375; conditions: Homo sapiens, A-375, 1 h; A375, one hour treatment; read-out: In-Cell Western A375 (Wild-type) Akt (P)
Procedure, shortened: as §1

SMILES	EC50 [1] [µM]	EC50 [2] [µM]	IC50 [3] [µM]	EC50 [4] [µM]	IC50 (K-Ras G12V) [µM]	EC50 [5] [µM]	IC50 (wild type K-Ras) [µM]	IC50 (Panc10.05-G12D) [µM]	IC50 (Panc1-G12D) [µM]	IC50 (HCT116-G31D) [µM]	EC50 [6] [µM]	IC50 [7] [µM]	EC50 [8] [µM]	IC50 (K-Ras G12D) [µM]	IC50 [9] [µM]	IC50 [10] [µM]	EC50 [11] [µM]	EC50 [12] [µM]
Cc1nc(C)c(C(=O)Nc2nc(-c3ccc4c(c3)CCC(=O)N4CC3CCCOC3)cs2)o1 (stereo not shown) [Compound 66, 2,4-dimethyl-N-(4-(2-oxo-1-((tetrahydro-2H-pyran-3-yl)methyl)-1,2,3,4-tetrahydroquinolin-6-yl)thiazol-2-yl)oxazole-5-carboxamide]	4	2	4	3	6.5	3	11.1	2	6	3	18	2	15	4.5	–	–	–	–
CCc1nc(C)c(C(=O)Nc2nc(-c3ccc4c(c3)CCC(=O)N4Cc3cccnc3)cs2)o1 [Compound 64, 2-ethyl-4-methyl-N-(4-(2-oxo-1-(pyridin-3-ylmethyl)-1,2,3,4-tetrahydroquinolin-6-yl)thiazol-2-yl)oxazole-5-carboxamide]	7	6	10	9	9.6	5	> 25	2	5	5	> 25	3.5	15	3	2	–	–	–
Cc1nc(C(C)C)oc1C(=O)Nc1nc(-c2ccc3c(c2)CCC(=O)N3)cs1 [Compound 7, 2-isopropyl-4-methyl-N-(4-(2-oxo-1,2,3,4-tetrahydroquinolin-6-yl)thiazol-2-yl)oxazole-5-carboxamide]	> 25	> 25	> 25	4	> 25	> 25	11.7	2	8	> 25	8	> 25	–	4.8	> 25	> 25	> 25	> 25
CCc1nc(C)c(C(=O)Nc2nc(-c3ccc4c(c3)CCC(=O)N4Cc3ccccn3)cs2)o1 [Compound 63, 2-ethyl-4-methyl-N-(4-(2-oxo-1-(pyridin-2-ylmethyl)-1,2,3,4-tetrahydroquinolin-6-yl)thiazol-2-yl)oxazole-5-carboxamide]	6	4	5	7	9.8	3	> 25	2	5	4	> 25	4	10	5.6	1.5	–	–	–
Cc1nc(C2CC2)oc1C(=O)Nc1nc(-c2ccc3c(c2)CCC(=O)N3Cc2ccccc2)cs1 [Compound 58, N-(4-(1-benzyl-2-oxo-1,2,3,4-tetrahydroquinolin-6-yl)thiazol-2-yl)-2-cyclopropyl-4-methyloxazole-5-carboxamide]	–	6	–	–	21.6	–	20.4	3.4	1.7	4	3	2.3	–	5.2	4	–	–	–
CCn1nc(C)c(C(=O)Nc2nc(-c3ccc4c(c3)CCC(=O)N4CCOC)cs2)c1C [Compound 119, 1-ethyl-N-(4-(1-(2-methoxyethyl)-2-oxo-1,2,3,4-tetrahydroquinolin-6-yl)thiazol-2-yl)-3,5-dimethyl-1H-pyrazole-4-carboxamide]	1.1	19	2	0.759	–	3	5.4	0.71	2	16	1.5	3	> 25	2.6	6	8	8	12
Cc1nc(C2CC2)oc1C(=O)Nc1nc(-c2ccc3c(c2)CCC(=O)N3)cs1 [Compound 6, 2-cyclopropyl-4-methyl-N-(4-(2-oxo-1,2,3,4-tetrahydroquinolin-6-yl)thiazol-2-yl)oxazole-5-carboxamide]	–	–	–	2	19.4	4	10.6	3.6	2.4	> 25	3	10	–	7.3	5	–	–	–
Cc1nc(C2CCC2)oc1C(=O)Nc1nc(-c2ccc3c(c2)CCC(=O)N3)cs1 [Compound 8, 2-cyclobutyl-4-methyl-N-(4-(2-oxo-1,2,3,4-tetrahydroquinolin-6-yl)thiazol-2-yl)oxazole-5-carboxamide]	> 25	> 25	> 25	2	> 25	> 25	15.5	1.3	17	> 25	6	> 25	–	5.9	–	–	> 25	> 25
Cc1nn(C(C)(C)C)c(C)c1C(=O)Nc1nc(-c2ccc3c(c2)CCC(=O)N3)cs1 [Compound 57, 1-(tert-butyl)-3,5-dimethyl-N-(4-(2-oxo-1,2,3,4-tetrahydroquinolin-6-yl)thiazol-2-yl)-1H-pyrazole-4-carboxamide]	> 25	> 25	> 25	6	–	26	30	8	> 25	> 25	> 25	> 25	> 25	9.4	> 25	27	> 25	> 25
Cc1nn(C(C)C)c(C)c1C(=O)Nc1nc(-c2ccc3c(c2)CCC(=O)N3)cs1 [Compound 52, 1-isopropyl-3,5-dimethyl-N-(4-(2-oxo-1,2,3,4-tetrahydroquinolin-6-yl)thiazol-2-yl)-1H-pyrazole-4-carboxamide]	20	> 25	10	4	–	8	13.9	15	16	10	18	13	> 25	5.2	14	5	14	24
